Reference: patent publication US11357749B2, “Methods for treating neutropenia” (Enzychem Lifesciences Corporation, priority 2014, dated 2022)

Experiments:
sepsis = sepsis animal model, cecal-ligation-puncture; stated as known; cited from earlier work
STAT1 = STAT1 transcriptional activity reporter assay in HepG2 cells; format: cell-based, human; settings: HepG2, 10 ng IFN-γ, PLAG 0.01-10 μg/ml, 12 hours
Protocol: By using STAT6 inhibitor (S6I), it is confirmed that the reduction of Complement 3 in HepG2 cells (human hepatocyte cell line) is regulated by STAT6. […] It is also confirmed that PLAG has selective efficacy on STAT6 over STAT1. FIG. 1 presents graphs showing STAT1 and STAT6 transcriptional activity in the PLAG treated HepG2 cells. NC refers to the unstimulated control cell. For the STAT1 assay, gene transfected HepG2 (human hepatocyte cell line) is treated with 10 ng of IFN-γ and serially diluted PLAG is added (0.01 μg/ml, 0.1 μg/ml, 1 μg/ml, and 10 μg/ml as shown) to see its effect on gene expression in the stimulated cell. For the STAT6 assay, gene transfected HepG2 cells are treated with 10 ng of IL-4 and again serially diluted PLAG is added (0.01 μg/ml, 0.1 μg/ml, 1 μg/ml, and 10 μg/ml as shown) to see its effect on gene expression in the stimulated cell. The assay is carried out following 12 hours incubation of treated cells.

[1] = system: splenic nodules, primitive progenitor cells and megakaryocytes; experiment: Colony forming units in spleen (CFUs) assay in heavily irradiated mice; format: in vivo; settings: 50 mg/kg/d i.p. or p.o.
Protocol: In order to determine the in vivo effect of PLAG on the recovery of hematopoiesis, a CFUs assay is performed in heavily irradiated mice.

neutrophils = experiment: Pilot study in pancreatic cancer patients receiving chemotherapy: neutrophils (ANC); format: in vivo, human; settings: 16 patients, Gemcitabine and Erlotinib, PLAG 1,000 mg once per day orally, two cycles
Protocol: (§1) PLAG is administered to sixteen pancreatic cancer patients after chemotherapy. The subjects of this study are unoperable pancreatic cancer patients with ECOG (Eastern Cooperative Oncology Group) performance status of “0” or “1”, i.e. patients in good physical condition without much pain, able to enjoy almost normal lifestyle and thus, eligible for anticancer treatment for at least 2 months. The pancreatic cancer patients are “locally advanced” patients having tumor metastasis to the major vessels around pancreas or “Distant metastasis” patients with distant metastasis to liver, lung, bone, etc. ECOG performance status “0” refers to a patient who is asymptomatic, fully active, able to carry on all predisease activities without restriction with no pain and no problem for normal lifestyle, while “1” refers to a patient who is symptomatic but completely ambulatory with mile pain and a little problem for normal life. Anticancer (Gemcitabine and Erlotinib combo treatment) Regimen is as follows: 1,000 mg of Gemcitabine is injected once a week for three weeks (Day 1, Day 8, Day 15), and is not injected in the next one week (Day 22). Therefore, 1 cycle of anticancer treatment requires 1 month. 100 mg of Erlotinib (Tarceva) is administered once per day everyday orally. 1,000 mg of PLAG is also administered once per day orally, starting from 3 days before anticancer treatment until the last chemotherapy treatment. The PLAG treatment group and control group both completed two cycles of anticancer treatment. There is no difference among the control and PALG treatment groups in the amount or schedule of anticancer treatment.

C3 [2] = experiment: C3 protein by ELISA in HMC-1 cells; format: cell-based, human; settings: HMC-1, PLAG 1, 10 and 100 μg/mL for 2 hours, 72 hours activation with 10% FBS
Protocol: In a separate experiment, human mast cells (HMC-1, 1×10^5 cell/ml) are treated with PLAG of various concentrations (1, 10 and 100 μg/mL) for 2 hours. The cells are activated for 72 hours with 10% FBS (Fetal bovine serum) containing IMDM. The decrease of C3 is confirmed by ELISA analysis of the expressed protein.

C3 [3] = experiment: C3 mRNA (RT-PCR) in HepG2 cells; format: cell-based, human; settings: 2 hours
Protocol: A liver cell line, HepG2 (American Type Culture Collection, ATCC, Rockville, Md.), is incubated and maintained at 37° C., 5% CO2 humid atmosphere in DMEM medium. When HepG2 cells, which are known to produce complement in culture, are treated with PLAG, the activity of complement is reduced effectively, as confirmed by RT-PCR of mRNA. In the RT-PCR, 5×10^5 number of HepG2 cells/ml are distributed into 12 well plates and induced C3 for 12 hours with 10% FCS. Then PLAG is added and further cultured for 2 hours. Cells are harvested and mRNA is isolated and RT-PCR is carried out with specific primer of C3; GAPDH is used as an internal control.

monocytes = experiment: Monocyte ratio in blood of LPS-treated C57BL/6 mice; format: in vivo; settings: C57BL/6 mouse, LPS + PLAG, ratio to total leukocytes
Protocol: (§2) To observe the ratio of neutrophil and lymphocyte in the blood of Balb/C mice, 1 mg/kg of lipopolysaccharide (LPS) is injected to mice, i.p. to induce inflammation. 5 mg/kg of PLAG is administered to the mice orally and blood samples are taken at 3 and 13 days after. In addition, for comparison, normal mice that are not treated with PLAG, receive PBS (phosphate buffered saline) and olive oil. The blood samples taken from the mice are treated with EDTA bottle 0.5 ml (Minocollect tube, Greiner bio-one, Austria) and the level of neutrophils (NEU) and lymphocytes (LYM) as a percentage of total leukocytes is measured using automated blood sample analyzer BC-6800 (Mindray, Shenzhen, China).
Except for using C57BL/6 mouse instead of Balb/C mouse, mice are treated in the same manner as Example 6, the monocyte ratio (Mono) to total leukocytes is measured and the results are shown in Table 5.

platelets = experiment: Pilot study in pancreatic cancer patients receiving chemotherapy: platelets; format: in vivo, human; settings: 16 patients, Gemcitabine and Erlotinib, PLAG 1,000 mg once per day orally, two cycles
Protocol: as §1

C4 = experiment: Clinical study in healthy subjects: C4 in blood; format: in vivo, human
[4] = system: neutrophils and lymphocytes; experiment: Neutrophil and lymphocyte ratio in blood of LPS-treated Balb/C mice; format: in vivo; settings: LPS 1 mg/kg i.p. + PLAG 5 mg/kg oral, % of total leukocytes
Protocol: as §2

CCCCC/C=C\C/C=C\CCCCCCCC(=O)OC(COC(C)=O)COC(=O)CCCCCCCCCCCCCCC (racemic) [PLAG, 1-palmitoyl-2-linoleoyl-3-acetylglycerol]
survivability ratio of animals (sepsis): increases survivability ratio
STAT1 expression (transcriptional activity) (STAT1): no effect
number of splenic nodules and numbers of primitive progenitor cells and megakaryocytes [1]: marked increase
patients with neutrophil (ANC) decrease to less than 1,500/μl (neutrophils): 37.5%
patients with neutrophil decrease to less than 500/μl (neutrophils): none
patients with neutrophil decrease to less than 1,000/μl (neutrophils): 18.8%
patients with neutrophil number decrease to less than 50% (neutrophils): 37.5%
patients with neutrophil number decrease to less than 60% (neutrophils): 18.8%
patients with neutrophil number decrease to less than 75% (neutrophils): none
decrease of C3 (ELISA) (C3 [2]): proportional to the concentration of PLAG
C3 expression (RT-PCR) (C3 [3]; HepG2, 1 microgram/ml): somewhat
C3 expression (RT-PCR) (C3 [3]; HepG2, 10 microgram/ml): entirely
Monocyte ratio (monocytes): 18.4 ± 6.6%
patients whose platelet number dropped to less than 25,000 (platelets): no patient
patients with >50% decrease in platelet count (platelets): 43.8%
patients with >60% decrease in platelet count (platelets): 25%
patients with >70% decrease in platelet count (platelets): none
patients with anticancer treatment postponed or dose adjusted due to platelet number decrease to less than 50,000 (platelets): no patient
C4, After (C4; healthy subjects n = 27, 500 mg PLAG per day oral, after 4-wk intervention): 20.8 ± 5.6 mg/dL
C4, Before (C4; healthy subjects n = 27, before PLAG supplementation): 21.6 ± 6.6 mg/dL
Lymphocyte ratio [4]: 34.6 ± 7.0%
Neutrophil Ratio [4]: 53.2 ± 6.3%
